Source: EP1623706A2 (priority 2001, dated 2002)
Where two headings read alike, the source gives them in different places.

Experiments:
[1] = test system: L2987 human lung tumors
Description: L2987 human lung tumors were implanted and allowed to reach 50 to 100 mm^3 before drug administration.

[2] = test system: endothelial cells occurring in MATRIGEL plugs; assay: In vivo […] plug angiogenesis model; parameters: species or system athymic (nu/nu) Balb/c mice; details: mouse
Method: LX1 human lung tumor fragments that were maintained by serial subcutaneous passage in athymic (nu/nu) Balb/c mice were implanted subcutaneously as small fragments approximately 0.1 mm^3 in size. Tumor volume doubling time for this tumor in these studies was 2.8 days. When tumors reached the size range of 150-200 mm^3, liquid […] was injected subcutaneously on the side contralateral to the tumor. Treatment was initiated 24 hours later at varying doses and schedules. Prior to implanting, […] is prepared by placing solidified […] on ice overnight at 4 C in accordance with the method described by Passiniti et al. (Lab. Invest. 1992 67:519-28). At the liquid phase and while on ice, VEGF and bFGF (Peprotech, Inc. Rocky Hill, NJ) is added to the […] at final respective concentrations of 75 ng/ml and 300 ng/ml. Stock solutions of these growth factors are made fresh at 10 mg/ml in PBS. […] These plugs were then processed for paraffin embedding and sectioned at 5 µm thickness followed by staining with hematoxylin and eosin prior to quantitative analysis. The number of endothelial cells in plugs was quantitated using the IMAGEPRO PLUS software (Media Cybernetics, Inc., Silver Spring, MD) at a magnification of 20x. […]
Angiogenesis is evaluated in these plugs as the number of endothelial cells migrating into plugs from compound treated groups relative to the vehicle treated group. […]

[3] = test system: human breast carcinoma line H3396; assay: H3396 tumor cell proliferation (3H-thymidine incorporation); type: cell-based
Method: Primary human umbilical vein endothelial cells (HUVEC) were purchased from CLONETICS Inc. (San Diego, CA) and used at passage 2 to 3. Proliferation was measured using ^3H-thymidine incorporation in cells by pulsing twenty-four hours prior to harvesting cell cultures. The human breast carcinoma line H3396 was used to assess activity of compound on tumor cells. Cells (2 × 10^3) were plated on collagen IV coated 96 well plates. Twenty-four hours later, compounds were added at varying concentrations. After 48 hours, ^3H-thymidine was added and cells were allowed to incorporate this label over a twenty-four hour period. Cellular extracts were harvested onto glass filters and incorporated radioactivity was determined by counting in a Beta scintillation counter. The IC50, defined as the drug concentration that causes 50% inhibition of ^3H-thymidine incorporation, was extrapolated from the plotted data. Cell selective inhibition for endothelial cells by a particular compound was defined by at least a ten-fold greater inhibition of HUVEC primary cell cultures when compared to the H3396 tumor cell line.

[4] = test system: mammary 16/C murine carcinoma; assay: Staged subcutaneous mammary 16/C carcinoma in mice, gross log cell kill; type: in vivo, C3H mice
Description: The final concentrations of each component of the vehicle was as follows: CREMOPHOR 10%; ethanol […]; aqueous 80%.
C3H conventional mice were purchased from Harlan-Sprague Dawley (Indianapolis, IN) and fed mouse chow and water ad libitum.
The metastatic mammary 16/C murine carcinoma was propagated biweekly in C3H mice. Experiments were initiated by subcutaneous insertion by trocar of tumor fragments.
For in vivo tumor testing, the C3H mice were implanted subcutaneously with mammary 16/C tumor fragments. All treatments were initiated on Day 10 post-tumor implant, except for an untreated control group. All groups contained 8 mice. Tumors were measured once or twice weekly and dimensions were converted to weights using the formula Weight (milligrams)= […], where a=length and b=width (in millimeters). The median time for tumors within each group of mice to reach 1 gram was determined and the delays in median time to reach 1 gram tumor target size for treated (T) versus control (C) groups was calculated. These delays in tumor growth (T-C value in days) were further converted to gross log cell kill (LCK) values using the formula T-C/(tumor volume doubling time, TVDT, of the control group) x (3.32). A LCK of greater than or equal to 1 LCK was considered an active result. Cures were assessed at the end of each experiment and defined in the absence of a tumor mass of greater than 35 milligrams. Experiments were terminated more than 10 x TVDT following the completion of all treatments.

[5] = test system: human umbilical vein endothelial cell (HUVEC); assay: HUVEC proliferation (3H-thymidine incorporation); type: cell-based; details: second value of two separate experiments, read-out: IC50 in Cells HUVEC
Method: Primary human umbilical vein endothelial cells (HUVEC) were purchased from CLONETICS Inc. (San Diego, CA) and used at passage 2 to 3. Proliferation was measured using ^3H-thymidine incorporation in cells by pulsing twenty-four hours prior to harvesting cell cultures. […] Cells (2 × 10^3) were plated on collagen IV coated 96 well plates. Twenty-four hours later, compounds were added at varying concentrations. After 48 hours, ^3H-thymidine was added and cells were allowed to incorporate this label over a twenty-four hour period. Cellular extracts were harvested onto glass filters and incorporated radioactivity was determined by counting in a Beta scintillation counter. The IC50, defined as the drug concentration that causes 50% inhibition of ^3H-thymidine incorporation, was extrapolated from the plotted data.

[6] = test system: drug-resistant Lewis Lung carcinoma; details: 170 mg/kg every 6 days versus other cyclophosphamide schedules tested (e.g. 135 mg/kg every 4 days); cited from earlier work
[7] = metronomic regime 20 mg/kg orally, q2dx15, cumulative dose 300 mg/kg

Compound: COC(=O)O[C@@]12CO[C@@H]1C[C@H](O)[C@@]1(C)C(=O)[C@H](OC(C)=O)C3=C(C)[C@@H](OC(=O)[C@H](O)[C@@H](NC(=O)OC(C)(C)C)C(C)(C)C)C[C@@](O)([C@@H](OC(=O)c4ccccc4)[C@H]21)C3(C)C [Formula I, 3'-tert-Butyl-3'-N-tert-butyloxycarbonyl-4-deacetyl-3'-dephenyl-3'-N-debenzoyl-4-O-methoxycarbonyl-paclitaxel]
- weight loss ([1]; 60 mg/kg orally, standard schedule q2dx5 (MTD), cumulative dose 300 mg/kg): weight loss was also observed
- anti-tumor response ([1]; 60 mg/kg orally, standard schedule q2dx5 (MTD), cumulative dose 300 mg/kg, compared with metronomic regime): greater anti-tumor response was observed
- tumor growth [1, 7]: suppressed tumor growth
- weight loss [1, 7]: no weight loss was observed
- doses lower than the maximum tolerated dose at which anti-angiogenic effects are still observed in vivo [2]: approximately 13 fold
- IC50 ([3]; H3396, read-out: IC50 in Cells H3396, second value of two separate experiments): 3 nM

Compound: CC(=O)O[C@H]1C(=O)[C@@]2(C)[C@H]([C@H](OC(=O)c3ccccc3)[C@]3(O)C[C@H](OC(=O)[C@H](O)[C@@H](NC(=O)c4ccccc4)c4ccccc4)C(C)=C1C3(C)C)[C@]1(OC(C)=O)CO[C@@H]1C[C@@H]2O [TAXOL, paclitaxel]
- IC50 ([3]; H3396, second value of two separate experiments, read-out: IC50 in Cells H3396): 4 nM
- cures/total ([4]; Paclitaxel 20 mg/kg/inj qd 10-14 iv, Paclitaxel 30 qd 32-36 iv, no Formula I, Day 88 post-tumor implant): 1/8
- cures/total ([4]; Paclitaxel 30 mg/kg/inj qd 10-14 iv only, Day 60 post tumor implant): 2/8
- cures/total ([4]; Paclitaxel 30 mg/kg/inj qd 10-14 iv, Paclitaxel 30 qd 32-36 iv, no Formula I, Day 88 post-tumor implant, listed as Paclitaxel): 2/8
- cures/total ([4]; Paclitaxel 30 mg/kg/inj qd 10-14 iv, Paclitaxel 30 qd 32-36 iv, no Formula I, Day 88 post-tumor implant, listed as paclitaxel): 2 of 8
- cures/total ([4]; Paclitaxel 45 mg/kg/inj qd 10-14 iv only, Day 60 post tumor implant): 1/8
- likely MTD regimen ([4]; during each of the two courses of treatment (qdx5; 10, 32, iv)): 30 mg/kg/inj
- MTD regimen ([4]; qdx5, iv, beginning on Day 10 post-tumor implant, single course): 45 mg/kg/injection
- IC50 [5]: 5 nM

Compound: O=P1(N(CCCl)CCCl)NCCCO1 (stereo not shown) [cyclophosphamide]
- controlling tumor growth [6]: more effective
